Our source for the ring closure, overall yield values is publication PMC6839570.

The data set is described as follows: Thioether (C-S) macrocyclisation: SN2' of the free C-terminal Cys-NH2 thiol on an N-terminal O-acetyl Morita-Baylis-Hillman (2-methylene-3-acetoxyacyl) residue, Et3N 3% v/v, 48 h; crude cleaved linear peptides. As to conditions: the molecule shown is the open-chain precursor, 16-membered ring, dry THF/CH2Cl2 1:1, 1.0 mM, 25.0 °C, 11 steps.

Each structure is given as a SMILES string.

With `C=C(C(=O)N[C@@H](Cc1ccccc1)C(=O)N[C@H](CC(C)C)C(=O)N[C@H](C)C(=O)N[C@@H](CS)C(N)=O)C(CCCCCC)OC(C)=O` (stereo partly drawn) [n-C6H13CH(OAc)C(=CH2)CO-Phe-D-Leu-D-Ala-Cys-NH2], the ring closure, overall yield stood at 11.8%.
The value for `C=C(C(=O)N[C@@H](Cc1ccccc1)C(=O)N[C@@H](CC(C)C)C(=O)N[C@H](C)C(=O)N[C@@H](CS)C(N)=O)C(C)OC(C)=O` (stereo partly drawn) [CH3CH(OAc)C(=CH2)CO-Phe-Leu-D-Ala-Cys-NH2] was 2.7%.
The figure for `C=C(C(=O)N[C@@H](C)C(=O)N[C@@H](CC(C)C)C(=O)N[C@@H](Cc1ccccc1)C(=O)N[C@@H](CS)C(N)=O)C(C)OC(C)=O` (stereo partly drawn) [CH3CH(OAc)C(=CH2)CO-Ala-Leu-Phe-Cys-NH2] is 14.8%; for `C=C(C(=O)N[C@@H](Cc1ccccc1)C(=O)N[C@@H](CC(C)C)C(=O)N[C@H](C)C(=O)N[C@@H](CS)C(N)=O)C(CCCCCC)OC(C)=O` (stereo partly drawn) [n-C6H13CH(OAc)C(=CH2)CO-Phe-Leu-D-Ala-Cys-NH2] it is 4.7%; for `C=C(C(=O)N[C@@H](Cc1ccccc1)C(=O)N[C@H](CC(C)C)C(=O)N[C@H](C)C(=O)N[C@@H](CS)C(N)=O)C(C)OC(C)=O` (stereo partly drawn) [CH3CH(OAc)C(=CH2)CO-Phe-D-Leu-D-Ala-Cys-NH2] it is 7.3%.
The figure for `C=C(C(=O)N[C@@H](Cc1ccccc1)C(=O)N[C@@H](CC(C)C)C(=O)N[C@@H](C)C(=O)N[C@@H](CS)C(N)=O)C(C)OC(C)=O` (stereo partly drawn) [CH3CH(OAc)C(=CH2)CO-Phe-Leu-Ala-Cys-NH2] is 10.2%.
Regarding `C=C(C(=O)N[C@@H](Cc1ccccc1)C(=O)N[C@H](CC(C)C)C(=O)N[C@@H](C)C(=O)N[C@@H](CS)C(N)=O)C(C)OC(C)=O` (stereo partly drawn) [CH3CH(OAc)C(=CH2)CO-Phe-D-Leu-Ala-Cys-NH2], the ring closure, overall yield turned out to be 14.4%.
